# Laboratory results from patent US12370263B2, “Cyclic dinucleotide derivative based antibody-drug conjugates” (DAIICHI SANKYO COMPANY, LIMITED, priority 2018, dated 2025).
# Assays:
# [1] = biological target: T1, HisAviTEV-hSTING (139-342) human wild-type protein (Homo sapiens, UniProt Q86WV6, H232R); assay: Protein thermal shift assay, STING C-terminal binding domain protein; conditions: test compound final concentration 0.5 mM
# T1 construct: made in house; host or cells: E. coli Rosetta 2 (DE3), co-expressed with BirA (1-321)
# [2] = biological target: T2, HisAviTEV-hSTING (139-342) human REF-mutated protein (Homo sapiens, UniProt Q86WV6); assay: as above; conditions: test compound final concentration 0.5 mM
# T2 construct: made in house; host or cells: E. coli Rosetta 2 (DE3), co-expressed with BirA (1-321)
# [3] = biological target: T3, HisAviTEV-hSTING (139-342) human AQ-mutated protein (Homo sapiens, UniProt Q86WV6, G230A/H232R/R293Q); assay: as above; conditions: test compound final concentration 0.5 mM
# T3 construct: made in house; host or cells: E. coli Rosetta 2 (DE3), co-expressed with BirA (1-321)
# [4] = biological target: T4, His-Avi-TEV-mSTING (138-341) mouse wild-type protein (Mus musculus, UniProt Q3TBT3); assay: as above; conditions: test compound final concentration 0.5 mM
# T4 construct: made in house; host or cells: E. coli Rosetta 2 (DE3), co-expressed with BirA (1-321)
# Experimental: Each of these expression strains was added to a TB medium containing 100 μg/mL ampicillin, 50 μg/mL streptomycin, and 30 μg/mL kanamycin, cultured at 37° C., then exposed to 100 μM IPTG for inducible expression, and further cultured at 16° C.
# The culture solution was centrifuged, and the resulting bacterial cells were suspended in 50 mM HEPES pH 8.0, 500 mM NaCl, 20 mM imidazole, 1 mM DTT, 5% (w/v) glycerol, Complete EDTA free, and then subjected to freeze-thawing. After addition of Lysozyme and DNase I, proteins were extracted by ultrasonic disintegration, and centrifugation was performed and the resulting supernatant was collected. The supernatant obtained was purified by using an AKTA express chromatography system (GE Healthcare, IL, US) with a HisTrap FF column (GE Healthcare), and eluted with buffer (20 mM HEPES pH 7.5, 120 mM NaCl, 20% Glycerol, 0.8 mM DTT) through a Superdex 200 16/60 column (GE Healthcare). […] The protein concentrations were measured by using a NanoDrop2000 (Thermo Fisher Scientific, MA, US), and the proteins were cryopreserved at −80° C. until use.
# The binding ability of each compound to the STING C-terminal binding domain proteins was evaluated by protein thermal shift assay, which uses the elevation of thermal denaturation temperature of protein as an index.
# Specifically, 3 μL of a test compound (final concentration: 0.5 mM), 3 μL of SYPRO Orange Protein Gel Stain (Thermo Fisher Scientific) (final concentration: 20-fold), and 6 μL of a STING protein were mixed with use of assay buffer (20 mM Tris-HCl pH 7.5, 120 mM NaCl) in a 384-well real-time PCR plate, and mixed together with a plate shaker. With a real-time PCR system (Thermo Fisher Scientific), the temperature was increased from 25° C. to 95° C. at a rate of 0.03° C./sec, and the thermal denaturation temperature of the protein was measured by using fluorescence emitted from SYPRO Orange as an index. From the measurement acquired, Tm (the midpoint of the unfolding transition) (° C.) was determined as a temperature at which the increase rate of fluorescence intensity was maximized by using the analysis software Protein Thermal Shift software (Thermo Fisher Scientific). The Tm value for a well with no compound was subtracted from the Tm value for each test compound to calculate the Tm shift caused by the compound as ΔTm (° C.).
# [5] = system: CT26.WT cells; assay: Anti-Tumor Test (1), intratumoral administration; assay type: in vivo, BALB/c mouse; conditions: 10 μg intratumorally on Day 7, 9, and 11; CT26.WT in BALB/c mice; FIGS. 7a and 7b
# Experimental: Mice: Before use for experiment, 5-week-old female BALB/c mice (BALB/cAnNCrlCrlj) (Charles River Laboratories Japan, Inc.) were habituated under SPF conditions for 4 days or longer.
# Measurement, calculation formula: In all the studies, the major axis and minor axis of a tumor were measured twice or three times per week by using an electronic digital caliper (CD15-CX, Mitutoyo Corporation) to calculate tumor volume (mm^3). The calculation formula is as follows. Tumor volume (mm^3)=0.5×Major axis (mm)×[Minor axis (mm)]^2
# Each test compound was diluted with physiological saline (Otsuka Pharmaceutical Factory, Inc.) for use. In administration of it, 50 μL was intratumorally administered.
# Cells of the mouse colorectal cancer cell line CT26.WT (CRL2638) purchased from the American Type Culture Collection were used. CT26.WT cells were suspended in physiological saline, 1.0×10^6 cells were subcutaneously transplanted into the right axilla of each BALB/c mouse (Day 0), and 7 days thereafter the mice were randomly grouped. Each test compound in a dose of 10 μg was intratumorally administered on Day 7, 9, and 11, three times in total. A group with administration of physiological saline was set as a group with a vehicle. The number of mice in each group was five or six.
# [6] = biological target: Human STING (Homo sapiens, UniProt Q86WV6, G230A/H232R/R293Q/R71H); assay: Reporter gene assay, human STING agonist activity, THP1-Dual cells (HAQ-mutated), IRF pathway; conditions: THP1-Dual cells IRF EC50, THP1-Dual cells (HAQ-mutated), 24 hours; 100% = maximum count with ML-RR-CDA·2Na+
# Experimental: Human STING agonist activity was evaluated by using THP1-Dual™ cells (HAQ-mutated) (InvivoGen, CA, US), with which the activation of the pathway of interferon regulatory factor-3 (IRF3), which is present in the downstream of the STING pathway, can be confirmed.
# Assay was performed as follows. First, a test compound diluted with PBS was aliquoted into a transparent 96-well plate (Corning Incorporated, NY, US) at 20 μL/well. Subsequently, reporter cells suspended in assay buffer (an RPMI1640 medium or DMEM medium containing 10% bovine serum albumin) were added at 180 μL/well (1×10^5 cells/well) to initiate stimulation. After the cells were cultured in an environment at 37° C. and 5% CO2 for 24 hours, the resultant was centrifuged to collect the supernatant. To a white 384-well plate, 6 μL of the supernatant collected was added, and 15 μL of QUANTI-Luc (InvivoGen) solution was added thereto. After the resultant was well mixed together, emission was measured by using a plate reader (PerkinElmer, Inc., MA, US).
# [7] = system: CT26.WT-hHER2 cells; assay: Anti-Tumor Test (6); assay type: in vivo, BALB/c mouse; conditions: 1.2 μg (equivalent of the conjugate's CDN component) into the tail vein on Day 7, once; CT26.WT-hHER2 in BALB/c mice
# Experimental: Each antibody-CDN conjugate was diluted with acetate buffer (10 mM Acetate Buffer, 5% Sorbitol, pH 5.5) (NACALAI TESQUE, INC.) for use. In administration of it, 200 μL was administered into the tail vein.
# CT26.WT-hHER2 cells were suspended in physiological saline, 5.0×10^6 cells were subcutaneously transplanted into the right axilla of each BALB/c mouse (Day 0), and 7 days thereafter the mice were randomly grouped. Each specimen for administration was administered into the tail vein on Day 7, once in total. A group with administration of acetate buffer was set as a group with a vehicle. The number of mice in each group was five.
# Chain of Human STING (Q86WV6 whole entry R71H/G230A/H232R/R293Q): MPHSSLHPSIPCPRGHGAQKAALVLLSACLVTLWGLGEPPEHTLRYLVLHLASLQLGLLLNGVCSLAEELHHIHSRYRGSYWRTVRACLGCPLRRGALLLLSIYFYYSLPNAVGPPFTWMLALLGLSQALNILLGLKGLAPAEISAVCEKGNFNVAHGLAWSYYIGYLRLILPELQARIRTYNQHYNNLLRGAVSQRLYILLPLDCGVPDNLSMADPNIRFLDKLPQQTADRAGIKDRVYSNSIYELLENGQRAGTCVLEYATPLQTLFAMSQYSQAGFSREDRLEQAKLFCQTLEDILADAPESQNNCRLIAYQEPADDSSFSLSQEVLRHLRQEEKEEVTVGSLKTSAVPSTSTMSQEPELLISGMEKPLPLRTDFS
# T3 sequence (Q86WV6 with tags, fused parts or gaps G230A/H232R/R293Q): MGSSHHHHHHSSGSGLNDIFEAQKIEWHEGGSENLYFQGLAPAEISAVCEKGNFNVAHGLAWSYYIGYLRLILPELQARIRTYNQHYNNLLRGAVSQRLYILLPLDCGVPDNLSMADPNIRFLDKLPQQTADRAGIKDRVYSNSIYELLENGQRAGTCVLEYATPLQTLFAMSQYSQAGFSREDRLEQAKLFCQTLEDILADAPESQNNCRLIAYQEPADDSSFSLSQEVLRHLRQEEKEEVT
# T4 sequence (Q3TBT3 with tags, fused parts or gaps limits assumed): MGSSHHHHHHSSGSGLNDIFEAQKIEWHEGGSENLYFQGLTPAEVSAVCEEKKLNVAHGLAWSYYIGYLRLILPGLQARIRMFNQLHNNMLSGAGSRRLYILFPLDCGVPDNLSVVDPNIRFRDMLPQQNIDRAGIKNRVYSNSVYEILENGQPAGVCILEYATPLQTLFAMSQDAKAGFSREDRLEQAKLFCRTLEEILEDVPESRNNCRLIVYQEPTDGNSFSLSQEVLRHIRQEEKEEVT
# T2 sequence (Q86WV6 with tags, fused parts or gaps, change not shown): as the sequence (Q86WV6 with tags, fused parts or gaps G230A/H232R/R293Q) above, with A131G, R133H, Q194R counted along it
# T1 sequence (Q86WV6 with tags, fused parts or gaps H232R): as the sequence (Q86WV6 with tags, fused parts or gaps G230A/H232R/R293Q) above, with A131G, Q194R counted along it
SMILES,ΔTm at 500 µM [1] [°C],ΔTm at 500 µM [2] [°C],ΔTm at 500 µM [3] [°C],ΔTm at 500 µM [4] [°C],EC50 [6] [µM],ΔTm Hu-WT [1] [°C],ΔTm Hu-REF [2] [°C],ΔTm Hu-AQ [3] [°C],ΔTm Ms-WT [4] [°C],tumor growth (tumor volume) [5],tumor growth (tumor volume) [7]
"O=c1c2ncn([C@@H]3O[C@@H]4COP(=O)(S)O[C@H]5[C@@H](O)[C@H](n6cc7c8c(ncnc86)NCCC7)O[C@@H]5COP(=O)(S)O[C@@H]3[C@@H]4O)c2ncn1CCO (single isomer, unassigned) [6a]",10.6,5.7,14.8,15.7,0.6,,,,,significantly suppressed,
"Nc1nc(NCCO)nc2c1ncn2[C@@H]1O[C@@H]2COP(=O)(S)O[C@H]3[C@@H](O)[C@H](n4cc5c6c(ncnc64)NCCC5)O[C@@H]3COP(=O)(S)O[C@@H]1[C@@H]2O (single isomer, unassigned) [9b]",,,,,2.4,,,,,significantly suppressed,
"O=C(CO)NCCn1cnc2c(ncn2[C@@H]2O[C@@H]3COP(=O)(S)O[C@H]4[C@@H](F)[C@H](n5cc6c7c(ncnc75)NCCC6)O[C@@H]4COP(=O)(S)O[C@@H]2[C@@H]3O)c1=O (single isomer, unassigned) [36a]",10.8,5.8,13.3,15.4,2,,,,,,
"NCCNc1nc(N)c2ncn([C@@H]3O[C@@H]4COP(=O)(S)O[C@H]5[C@@H](F)[C@H](n6cc7c8c(ncnc86)NCCC7)O[C@@H]5COP(=O)(S)O[C@@H]3[C@@H]4O)c2n1 (single isomer, unassigned) [37b]",,,,,4.5,8.1,3.4,9.4,12.3,,
"O=c1c2ncn([C@@H]3O[C@@H]4COP(=O)(S)O[C@H]5[C@@H](O)[C@H](n6cc7c8c(ncnc86)NCCC7)O[C@@H]5COP(=O)(S)O[C@@H]3[C@@H]4O)c2ncn1CCCO (single isomer, unassigned) [26b]",9.1,3.9,11.5,14.1,1.2,,,,,,
"O=C(CO)NCCn1cnc2c(ncn2[C@@H]2O[C@@H]3COP(=O)(S)O[C@H]4[C@@H](F)[C@H](n5cc6c7c(ncnc75)SCCC6)O[C@@H]4COP(=O)(S)O[C@@H]2[C@@H]3O)c1=O (single isomer, unassigned) [50a]",12.3,6.5,15.6,13,0.34,,,,,,

# Further molecules by falling EC50 [6], results first:
ΔTm at 500 µM [1] [°C],ΔTm at 500 µM [2] [°C],ΔTm at 500 µM [3] [°C],ΔTm at 500 µM [4] [°C],EC50 [6] [µM],ΔTm Hu-WT [1] [°C],ΔTm Hu-REF [2] [°C],ΔTm Hu-AQ [3] [°C],ΔTm Ms-WT [4] [°C],SMILES,tumor growth (tumor volume) [5],tumor growth (tumor volume) [7]
,,,,6.6,,,,,"NCCNc1nc(N)c2ncn([C@@H]3O[C@@H]4COP(=O)(S)O[C@H]5[C@@H](O)[C@H](n6cc7c8c(ncnc86)NCCC7)O[C@@H]5COP(=O)(S)O[C@@H]3[C@@H]4O)c2n1 (single isomer, unassigned) [8b]",significantly suppressed,not suppressed
8.3,3.4,9.8,12.1,4,,,,,"O=c1c2ncn([C@@H]3O[C@@H]4COP(=O)(O)O[C@H]5[C@@H](F)[C@H](n6cc7c8c(ncnc86)NCCC7)O[C@@H]5COP(=O)(O)O[C@@H]3[C@@H]4O)c2ncn1CCO [compound 54, Disodium (5R,7R,8R,12aR,14R,15R,15aR,16R)-15-fluoro-16-hydroxy-7-[1-(2-hydroxyethyl)-6-oxo-1,6-dihydro-9H-purin-9-yl]-2,10-dioxo-14-(6,7,8,9-tetrahydro-2H-2,3,5,6-tetraazabenzo[cd]azulen-2-yl)octahydro-2H,10H,12H-5,8-methano-2λ^5,10λ^5-furo[3,2-1][1,3,6,9,11,2,10]pentaoxadiphosphacyclotetradecine-2,10-bis(olate)]",,
9.7,4.2,12.2,15.6,2.6,,,,,"Nc1ncnc2c1ncn2[C@@H]1O[C@@H]2COP(=O)(S)O[C@H]3[C@@H](O)[C@H](n4cc5c6c(ncnc64)SCCC5)O[C@@H]3COP(=O)(S)O[C@@H]1[C@@H]2O (single isomer, unassigned) [23a]",,
8.9,4.4,10.8,12.3,1.2,,,,,"NCCNc1nc(N)c2ncn([C@@H]3O[C@@H]4COP(=O)(S)O[C@H]5[C@@H](F)[C@H](n6cc7c8c(ncnc86)NCCC7)O[C@@H]5COP(=O)(S)O[C@@H]3[C@@H]4F)c2n1 (single isomer, unassigned) [45a]",,
12.6,6.6,16.1,19.3,0.41,,,,,"NCCn1cnc2c(ncn2[C@@H]2O[C@@H]3COP(=O)(S)O[C@H]4[C@@H](F)[C@H](n5cc6c7c(ncnc75)SCCC6)O[C@@H]4COP(=O)(S)O[C@@H]2[C@@H]3O)c1=O (single isomer, unassigned) [49b]",,
13.4,8.7,18.2,19.3,0.21,,,,,"O=c1c2ncn([C@@H]3O[C@@H]4COP(=O)(S)O[C@H]5[C@@H](F)[C@H](n6cc7c8c(ncnc86)NCCC7)O[C@@H]5COP(=O)(S)O[C@@H]3[C@@H]4F)c2ncn1CCO (single isomer, unassigned) [44a]",,
